Measurements published in ChEMBL document CHEMBL1201862, “PubChem BioAssay data set” (2004).
Structures can show the parent of a compound that is named as a salt. The source made the active and inactive calls.

Legend:
Beta-galactosidase = Beta-galactosidase (Escherichia coli, UniProt Q8VNN2); assay: Dose response counterscreen for EBI2 assay utilizing the enzyme, b-galactosidase.; format: functional
[1] = THP-1 cell cytotoxicity, dose response, cytotoxicity control for Vif-APOBEC3G degradation inhibitor project, THP-1 cells (AID 1117359); format: functional; settings: Human immunodeficiency virus 1, THP-1
cells [2] = format: functional, cell-based
[3] = target: T1, Trace amine-associated receptor 1 (Homo sapiens, UniProt Q96RJ0); assay: Fluorescence-based cell-based high throughput dose response assay to identify agonists of the human trace amine associated receptor 1 (TAAR1).; format: functional
T1 sequence (Q96RJ0 whole entry): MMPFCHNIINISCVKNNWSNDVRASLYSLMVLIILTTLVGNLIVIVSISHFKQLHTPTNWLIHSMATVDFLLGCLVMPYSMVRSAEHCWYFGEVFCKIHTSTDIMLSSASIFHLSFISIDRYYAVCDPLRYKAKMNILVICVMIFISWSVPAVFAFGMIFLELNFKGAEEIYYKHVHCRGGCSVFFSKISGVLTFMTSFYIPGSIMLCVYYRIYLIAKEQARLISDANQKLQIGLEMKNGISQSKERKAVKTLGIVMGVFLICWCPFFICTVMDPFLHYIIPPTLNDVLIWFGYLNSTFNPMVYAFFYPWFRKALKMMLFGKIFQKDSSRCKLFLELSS

[4] = target: T1, Trace amine-associated receptor 1; assay: Counterscreen for agonists of the human trace amine associated receptor 1 (hTAAR1): Fluorescence-based cell-based high throughput dose response assay to identify hTAAR1 agonist that also desensitize TAAR1 receptor response.; format: functional
cells [5] = format: functional, cell-based; remark: listed apart in the source
[6] = system: Streptococcus sp. 'group A'; assay: growth inhibition of control SK(-) GAS strain, dose response, counter-screen for streptokinase expression inhibitor project, luminescence, kanamycin, BacTiterGlo, confirmation (AID 1900); format: functional, organism-based
Streptococcus = assay: Group A Streptococcus viability loss, dose response, counter-screen for streptokinase expression inhibitor project, luminescence, BacTiterGlo (AID 1915); format: functional, organism-based;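 also: potency for reduction of bacterial viability or growth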
Nonstructural protein 1 = Nonstructural protein 1 (Influenza A virus, UniProt Q194T2); format: functional, Influenza A virus (A/California/07/2009(H1N1))
Chain of Nonstructural protein 1 (Q194T2 whole entry): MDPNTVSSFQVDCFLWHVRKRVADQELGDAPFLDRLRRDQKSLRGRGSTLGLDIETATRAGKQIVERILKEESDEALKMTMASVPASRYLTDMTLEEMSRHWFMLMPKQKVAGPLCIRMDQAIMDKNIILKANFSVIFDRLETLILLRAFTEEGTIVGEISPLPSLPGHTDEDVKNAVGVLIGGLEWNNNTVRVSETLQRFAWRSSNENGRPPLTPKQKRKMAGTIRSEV

Albumin = Albumin (Bos taurus, UniProt P02769); assay: Counterscreen for inhibitors of T-cell receptor (TCR)-CD3 interaction: Fluorescence-based biochemical high throughput dose response assay to identify inhibitors of T-cell receptor (TCR)-CD3 interaction using a TAMRA-labeled BSA probe.; format: functional
Chain of Albumin (P02769 whole entry): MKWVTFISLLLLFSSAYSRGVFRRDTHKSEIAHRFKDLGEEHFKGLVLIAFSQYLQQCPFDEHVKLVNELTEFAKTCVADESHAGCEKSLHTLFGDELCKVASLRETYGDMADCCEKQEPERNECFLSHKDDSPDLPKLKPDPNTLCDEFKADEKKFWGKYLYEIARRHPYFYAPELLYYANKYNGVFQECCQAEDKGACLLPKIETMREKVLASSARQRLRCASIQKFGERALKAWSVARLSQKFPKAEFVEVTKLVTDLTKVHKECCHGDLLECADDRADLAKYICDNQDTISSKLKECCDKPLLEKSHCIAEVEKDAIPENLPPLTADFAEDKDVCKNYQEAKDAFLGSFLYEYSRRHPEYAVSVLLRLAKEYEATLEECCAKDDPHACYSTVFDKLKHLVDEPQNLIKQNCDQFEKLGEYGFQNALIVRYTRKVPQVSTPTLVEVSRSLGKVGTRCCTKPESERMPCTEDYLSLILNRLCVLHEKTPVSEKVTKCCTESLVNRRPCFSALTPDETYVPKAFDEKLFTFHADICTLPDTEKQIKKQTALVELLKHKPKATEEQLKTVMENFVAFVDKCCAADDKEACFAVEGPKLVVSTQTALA

[7] = growth suppression of PTEN-null colon cells, dose response, cell-based, HCT116 PTEN knockout (AID 1047); format: functional;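 also: HCT116 colon tumor cells with PTEN knocked out; cells exposed to compound for 60 hours before readout; potency for loss of cell viability measured by luminescence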
[8] = growth suppression of beta-catenin-knockout colon cells, dose response, cell-based, HCT116, human colon tumor (AID 1045); format: functional;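 also: HCT116 colon tumor cells with beta catenin knocked out; cells exposed to compound for 60 hours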
HEK293 = assay: inhibitors of LMP1-driven NF-kB reporter, dose response, cell-based, HEK293, luciferase, cherry-pick (AID 588343); format: functional; settings: Homo sapiens
Protein Wnt-3a = Protein Wnt-3a (Mus musculus, UniProt P27467); assay: Wnt3a-driven reporter signaling inhibition, dose response, selectivity assay for Gli-SUFU antagonist project, Wnt-LIGHT cells, luminescence (AID 651570); format: functional; settings: read-out: IC50_Mean;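 also: Wnt-LIGHT reporter cells stimulated with conditioned medium from Wnt3a-producing cells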
Chain of Protein Wnt-3a (P27467 whole entry): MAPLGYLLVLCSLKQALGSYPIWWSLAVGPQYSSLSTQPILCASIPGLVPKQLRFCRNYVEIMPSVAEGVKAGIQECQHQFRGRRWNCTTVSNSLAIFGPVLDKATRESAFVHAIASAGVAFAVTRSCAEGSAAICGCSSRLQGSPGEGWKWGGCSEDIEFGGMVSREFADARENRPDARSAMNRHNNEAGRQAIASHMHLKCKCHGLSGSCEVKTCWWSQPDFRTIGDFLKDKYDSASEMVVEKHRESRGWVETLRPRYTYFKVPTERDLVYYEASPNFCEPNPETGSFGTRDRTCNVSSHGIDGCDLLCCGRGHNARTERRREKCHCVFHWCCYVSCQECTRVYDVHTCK

H9c2 = assay: cells; format: functional, cell-based; settings: Rattus norvegicus, H9c2, Myocardium;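 also: confirmatory concentration-response retest of ultra-high-throughput screening hits for modulation of myocardial damage; cell death induced by hydrogen peroxide oxidative stress; compound pretreatment for 60 min then peroxide exposure for 2 h; potency is for protecting the cells against peroxide damage rather than for killing them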
[9] = target: T2, Methionyl-tRNA synthetase, putative (Trypanosoma brucei brucei, UniProt Q38C91); format: functional, Trypanosoma brucei brucei strain 927/4 GUTat10.1;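 also: Read-out by fluorescence polarization, run as a confirmatory high-throughput counterscreen; potency of MetRS inhibitors measured by reduced AMP formation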
T2 sequence (Q38C91 whole entry): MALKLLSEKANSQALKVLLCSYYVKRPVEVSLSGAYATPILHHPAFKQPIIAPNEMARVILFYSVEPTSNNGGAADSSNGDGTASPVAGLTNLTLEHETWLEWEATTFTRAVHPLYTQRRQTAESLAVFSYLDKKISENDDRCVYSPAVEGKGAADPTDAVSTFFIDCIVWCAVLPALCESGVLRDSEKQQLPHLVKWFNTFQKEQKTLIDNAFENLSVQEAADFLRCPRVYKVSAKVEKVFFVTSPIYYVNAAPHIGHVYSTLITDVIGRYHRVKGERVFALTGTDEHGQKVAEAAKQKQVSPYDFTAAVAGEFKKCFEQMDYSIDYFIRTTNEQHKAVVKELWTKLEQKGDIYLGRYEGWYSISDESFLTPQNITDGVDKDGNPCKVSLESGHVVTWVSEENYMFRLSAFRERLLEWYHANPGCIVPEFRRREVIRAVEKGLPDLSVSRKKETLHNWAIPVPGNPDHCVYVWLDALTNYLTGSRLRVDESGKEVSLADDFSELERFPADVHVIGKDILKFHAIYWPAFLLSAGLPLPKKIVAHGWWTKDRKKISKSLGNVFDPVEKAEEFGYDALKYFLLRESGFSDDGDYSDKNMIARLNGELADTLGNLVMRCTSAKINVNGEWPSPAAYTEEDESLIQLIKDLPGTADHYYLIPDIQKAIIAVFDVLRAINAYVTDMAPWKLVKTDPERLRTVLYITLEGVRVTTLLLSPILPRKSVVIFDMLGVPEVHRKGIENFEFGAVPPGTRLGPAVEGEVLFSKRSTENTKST

[10] = Counterscreen for inhibitors of Trypanosoma brucei methionyl tRNA synthetase (MetRS): Luminescence-based cell-based high throughput dose response assay to identify compounds that are cytotoxic to Jurkat human T lymphocyte cells.; format: functional
INS1 = assay: beta cell apoptosis inhibitors, cytokine rescue, dose response, luminescence, retest (AID 449756); format: functional, cell-based; settings: Rattus norvegicus;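 also: cell death triggered by IL-1 beta plus TNF-alpha plus IFN-gamma mixture; protective hits raise ATP signal compared with cytokine alone wells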

Chain of Beta-galactosidase (Q8VNN2 whole entry): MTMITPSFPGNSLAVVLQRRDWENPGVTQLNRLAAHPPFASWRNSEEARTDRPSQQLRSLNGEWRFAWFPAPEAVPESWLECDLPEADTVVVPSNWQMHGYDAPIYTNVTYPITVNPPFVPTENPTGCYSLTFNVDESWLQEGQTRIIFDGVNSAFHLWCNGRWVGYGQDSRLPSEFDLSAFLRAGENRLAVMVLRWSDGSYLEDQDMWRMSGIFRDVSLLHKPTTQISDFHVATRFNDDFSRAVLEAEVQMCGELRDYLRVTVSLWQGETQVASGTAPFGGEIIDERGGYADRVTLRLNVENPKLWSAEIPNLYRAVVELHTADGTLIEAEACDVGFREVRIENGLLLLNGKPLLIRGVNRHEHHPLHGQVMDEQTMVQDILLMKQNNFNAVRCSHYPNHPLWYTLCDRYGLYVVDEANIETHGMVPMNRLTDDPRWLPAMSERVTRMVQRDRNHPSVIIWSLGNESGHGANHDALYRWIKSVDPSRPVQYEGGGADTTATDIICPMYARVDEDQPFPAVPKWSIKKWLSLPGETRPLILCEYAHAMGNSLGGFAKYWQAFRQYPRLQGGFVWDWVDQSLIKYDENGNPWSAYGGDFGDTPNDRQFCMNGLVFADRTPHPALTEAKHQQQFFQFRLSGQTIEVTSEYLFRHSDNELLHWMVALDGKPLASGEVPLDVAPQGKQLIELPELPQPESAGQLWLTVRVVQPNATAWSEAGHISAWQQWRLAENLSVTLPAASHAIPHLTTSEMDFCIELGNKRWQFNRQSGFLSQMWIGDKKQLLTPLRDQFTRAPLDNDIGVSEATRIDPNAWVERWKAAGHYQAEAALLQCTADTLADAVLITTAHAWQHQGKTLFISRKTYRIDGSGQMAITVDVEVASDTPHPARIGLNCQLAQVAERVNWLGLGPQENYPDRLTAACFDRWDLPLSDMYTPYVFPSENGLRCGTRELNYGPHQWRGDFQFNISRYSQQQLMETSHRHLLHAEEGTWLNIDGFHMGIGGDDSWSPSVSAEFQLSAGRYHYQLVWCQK

Nc1c(S(=O)(=O)c2ccccc2)c2nc3ccccc3nc2n1/N=C/c1ccco1
IC50 (Beta-galactosidase): > 80 µM (inactive)
CC50 [1]: > 40 µM (active)

CN(C)c1ccc(/C=N/CC2COc3ccccc3O2)cc1 (centres undefined)
IC50 (cells [2]): > 29.9 µM (inactive)
EC50 [3]: 4.25 µM (active)
IC50 [4]: 14.3 µM (inactive)
EC50 (cells [5]): > 29.9 µM (inactive)

O=C(N/N=C/c1cc([N+](=O)[O-])ccc1O)c1cccc(N2CCCC2=O)c1
EC50 [6]: 0.935 µM (active)
EC50 (Streptococcus): 1.9 µM (active)
IC50 (Nonstructural protein 1): 6.59 µM (active)
IC50 (Albumin): > 94.1 µM (inactive)

O=C(CCN1CCC(c2ccccc2)C1)c1ccc2c(c1)OCCO2 (centres undefined) [PROROXAN HYDROCHLORIDE]
EC50 [7]: 36.3 µM (active)
EC50 [8]: 34.3 µM (active)
AC50 (HEK293): 76.8 µM (active)
IC50 (cells [2]): > 29.9 µM (inactive)
EC50 [3]: 0.21 µM (active)
IC50 [4]: 1.46 µM (active)
EC50 (cells [5]): > 29.9 µM (inactive)

Clc1ccc(-c2c[n+](-c3ccc(Cl)cc3)c3n2CCCCC3)cc1
IC50 (Protein Wnt-3a): 26.4 µM (inactive)

O=C(Cn1nc(C(=O)O)c2ccccc2c1=O)c1c[nH]c2ccccc12
IC50 (H9c2): > 79 µM (inactive)
IC50 (Beta-galactosidase): > 80 µM (inactive)

O=C(Nc1ccccc1)Nc1ccc(S(=O)(=O)N2CCCCC2)cc1
IC50 [9]: 26.9 µM (inactive)
IC50 [10]: 47.5 µM (inactive)

CCc1ccccc1NC(=O)NNC(=O)c1ccc2ccccc2c1O
IC50 (Albumin): > 94.1 µM (inactive)

CCOc1ccc(OCc2ccc(C(=O)NN=Cc3ccc[nH]3)cc2)cc1
AC50 (INS1): 0.372 µM (active)
IC50 (Protein Wnt-3a): 5.48 µM (active)

S=C1SCN(CCc2ccccc2)CN1CCc1ccccc1
IC50 (cells [2]): > 29.9 µM (inactive)
EC50 [3]: 2.11 µM (active)
IC50 [4]: 3.35 µM (active)
EC50 (cells [5]): > 29.9 µM (inactive)
